Results reported in BigSolDB 2.1.

COCCOC(=O)C1=C(C)NC(C)=C(C(=O)OC(C)C)C1c1cccc([N+](=O)[O-])c1 (centres undefined)
solubility (mole fraction)
Details	278.15 K	283.15 K	288.15 K	293.15 K	298.15 K	303.15 K	308.15 K	313.15 K	318.15 K
in THF	0.0141	0.016	0.0181	0.0203	0.0229	0.0259	0.0291	0.0324	0.0366
in acetone	0.012	0.0136	0.0154	0.0171	0.0193	0.0217	0.0241	0.027	0.0295
in acetonitrile	0.00161	0.00191	0.00225	0.00267	0.00311	0.00365	0.00437	0.00503	0.00587
in cyclohexanone	0.0145	0.0164	0.0184	0.021	0.0239	0.0266	0.0297	0.0334	0.0375
in ethanol	0.014	0.0158	0.0176	0.0198	0.0221	0.0247	0.0272	0.0303	0.034
in ethyl acetate	0.00127	0.00145	0.0017	0.00192	0.00221	0.00248	0.0028	0.0032	0.00364
in ethyl formate	0.00152	0.0017	0.00192	0.00218	0.00247	0.00275	0.00305	0.00341	0.00381
in isobutanol	0.00706	0.00811	0.00923	0.0107	0.0122	0.0137	0.0156	0.0179	0.0201
in isopentanol	0.00609	0.00711	0.00815	0.00953	0.011	0.0126	0.0142	0.0166	0.0188
in isopropanol	0.0117	0.0132	0.0147	0.0163	0.0183	0.0204	0.0225	0.0249	0.0278
in methanol	0.0157	0.0178	0.0201	0.0229	0.0259	0.0289	0.0327	0.0364	0.0411
in methyl acetate	0.00456	0.00506	0.00573	0.00647	0.00718	0.00813	0.00898	0.00997	0.0112
in n-butanol	0.0106	0.0117	0.013	0.0145	0.0161	0.0177	0.0195	0.0217	0.0237
in n-pentanol	0.00802	0.00919	0.0103	0.0116	0.0131	0.0145	0.0162	0.018	0.0203
in n-propanol	0.011	0.0123	0.0139	0.0155	0.0173	0.0195	0.0216	0.0241	0.0269
in sec-butanol	0.00977	0.0111	0.0122	0.0134	0.0149	0.0167	0.0181	0.0198	0.022
